Results taken from ChEMBL document CHEMBL4627340, “Design, synthesis, and biological activity of new endomorphin analogs with multi-site modifications” (Bioorg Med Chem, 2020).
Calls of active or inactive are those of the source. No cut-off for these calls is given here.

Experiments:
[1] = molecular target: T1, Mu-type opioid receptor (Homo sapiens, UniProt P35372); test: Agonist activity at mu opioid receptor (unknown origin) expressed in human HEK293 cells assessed as […] in cAMP accumulation using [3H]-cAMP as substrate measured after 30mins by liquid scintillation counting method relative to control; type: functional, cell-based
T1 sequence (P35372 whole entry): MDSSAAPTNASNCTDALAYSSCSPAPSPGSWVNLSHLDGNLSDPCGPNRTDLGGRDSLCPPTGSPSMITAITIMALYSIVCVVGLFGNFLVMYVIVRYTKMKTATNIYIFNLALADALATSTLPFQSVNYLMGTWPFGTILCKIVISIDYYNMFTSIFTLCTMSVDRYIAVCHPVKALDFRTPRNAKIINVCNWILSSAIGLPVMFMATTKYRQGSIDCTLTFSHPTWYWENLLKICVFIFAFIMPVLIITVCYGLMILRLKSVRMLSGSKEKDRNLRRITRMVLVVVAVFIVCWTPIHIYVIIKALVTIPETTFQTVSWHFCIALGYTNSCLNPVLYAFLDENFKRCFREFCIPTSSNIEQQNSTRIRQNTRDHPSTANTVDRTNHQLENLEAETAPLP

[2] = molecular target: Mu-type opioid receptor (Rattus norvegicus, UniProt P33535); test: Displacement of [3H]-DAMGO from Wistar rat mu opioid receptor incubated for 1 hr by liquid scintillation counting method
Mu-type opioid receptor (Rattus norvegicus, UniProt P33535), sequence (P33535 whole entry): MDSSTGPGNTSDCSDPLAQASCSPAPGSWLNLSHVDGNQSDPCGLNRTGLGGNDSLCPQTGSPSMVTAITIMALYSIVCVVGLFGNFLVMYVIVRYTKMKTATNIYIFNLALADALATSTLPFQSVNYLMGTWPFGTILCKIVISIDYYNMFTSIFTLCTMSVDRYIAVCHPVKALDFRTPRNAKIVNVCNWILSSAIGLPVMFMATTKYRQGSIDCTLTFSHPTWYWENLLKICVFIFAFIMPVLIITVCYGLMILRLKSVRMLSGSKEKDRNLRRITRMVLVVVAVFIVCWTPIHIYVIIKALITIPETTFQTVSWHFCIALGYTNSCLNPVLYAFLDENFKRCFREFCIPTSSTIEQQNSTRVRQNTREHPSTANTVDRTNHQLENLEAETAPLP

[3] = molecular target: T1, Mu-type opioid receptor; test: Agonist activity at mu opioid receptor (unknown origin) expressed in human HEK293 cells assessed as […] in cAMP accumulation using [3H]-cAMP as substrate measured after 30mins by liquid scintillation counting method; type: functional, cell-based
[4] = molecular target: Delta-type opioid receptor (Rattus norvegicus, UniProt P33533); test: Displacement of [3H]-DPDPE from Wistar rat delta opioid receptor incubated for 3 hrs by liquid scintillation counting method
Delta-type opioid receptor, sequence (P33533 whole entry): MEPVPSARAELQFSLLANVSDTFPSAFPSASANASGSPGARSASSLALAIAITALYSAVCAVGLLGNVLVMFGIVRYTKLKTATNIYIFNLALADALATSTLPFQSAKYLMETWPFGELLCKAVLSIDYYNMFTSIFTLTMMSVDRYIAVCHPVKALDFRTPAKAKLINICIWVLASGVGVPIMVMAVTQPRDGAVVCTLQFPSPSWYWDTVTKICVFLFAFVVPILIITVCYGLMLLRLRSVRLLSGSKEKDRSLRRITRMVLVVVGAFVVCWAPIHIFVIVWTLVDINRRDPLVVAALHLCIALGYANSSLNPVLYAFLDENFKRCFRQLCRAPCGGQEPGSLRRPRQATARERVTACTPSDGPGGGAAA

[5] = Half life in Kunming mouse serum at 10^-2 mol/L by RP-HPLC analysis; type: ADME, cell-free
[6] = tested on: Mus musculus; test: Antinociceptive activity in kunming mouse models assessed as effective dose after icv administration measured from 5 to 60 mins by warm water tail-flick assay; type: functional
[7] = tested on: Mus musculus; test: Antinociceptive activity in kunming mouse models assessed as maximum possible effect at 4 nmol, icv measured from 5 to 60 mins by warm water tail-flick assay relative to control; type: functional
[8] = Half life in Kunming mouse brain homogenate at 10^-2 mol/L by RP-HPLC analysis; type: ADME, tissue-based
[9] = tested on: Mus musculus; test: Antinociceptive activity in kunming mouse models of formalin-induced hyperalgesia assessed as reduction in time spent on paw biting inflammatory phase at 4 nmol, icv measured during phase 2 at 15 to 30 mins relative to control; type: functional; parameters: scale not given: the % may be the effect or the level left
[10] = tested on: Mus musculus; test: Antinociceptive activity in kunming mouse models of formalin-induced hyperalgesia assessed as reduction in time spent on paw biting inflammatory phase at 0.04 nmol, icv measured during phase 1 at 0 to 5 mins relative to control; type: functional; parameters: scale not given: the % may be the effect or the level left
[11] = tested on: Mus musculus; test: Antinociceptive activity in kunming mouse models of formalin-induced hyperalgesia assessed as reduction in pain response of paw licking inflammatory phase at 0.04 nmol, icv measured during phase 1 at 0 to 5 mins relative to control; type: functional; parameters: scale not given: the % may be the effect or the level left
[12] = tested on: Mus musculus; test: Antinociceptive activity in kunming mouse models of formalin-induced hyperalgesia assessed as reduction in pain response of paw licking inflammatory phase at 4 nmol, icv measured during phase 1 at 0 to 5 mins relative to control; type: functional; parameters: scale not given: the % may be the effect or the level left
[13] = tested on: Mus musculus; test: Antinociceptive activity in icv administered kunming mouse models of formalin-induced hyperalgesia assessed reduction in time spent on paw shaking during inflammatory phase 2 at 15 to 30 mins; type: functional; parameters: scale not given: the % may be the effect or the level left
[14] = tested on: Mus musculus; test: Antinociceptive activity in kunming mouse models of formalin-induced hyperalgesia assessed as reduction in pain response of paw licking inflammatory phase at 4 nmol, icv measured during phase 2 at 15 to 30 mins relative to control; type: functional; parameters: scale not given: the % may be the effect or the level left
[15] = tested on: Mus musculus; test: Antinociceptive activity in kunming mouse models assessed as maximum possible effect at 10 mg/kg, iv measured after 5 to 60 mins co-treated with naloxone by warm water tail-flick assay; type: functional, organism-based
[16] = tested on: Mus musculus; test: Antinociceptive activity in icv administered kunming mouse models of formalin-induced hyperalgesia assessed reduction in pain response of paw licking during inflammatory phase 2 at 15 to 30 mins; type: functional, organism-based
[17] = tested on: Mus musculus; test: Antinociceptive activity in kunming mouse models of acetic-acid-induced writhing assessed as inhibition of writhing numbers at 0.04 nmol, icv pretreated for 5 mins followed by acetic-acid treatment and measured for 20 mins relative to control; type: functional; parameters: scale not given: the % may be the effect or the level left
[18] = tested on: Mus musculus; test: Antinociceptive activity in kunming mouse models of formalin-induced hyperalgesia assessed as reduction in time spent on paw shaking inflammatory phase at 4 nmol, icv measured during phase 2 at 15 to 30 mins relative to control; type: functional; parameters: scale not given: the % may be the effect or the level left
[19] = tested on: Mus musculus; test: Antinociceptive activity in kunming mouse models of acetic-acid-induced writhing assessed as inhibition of writhing numbers at 3 mg/kg, iv pretreated for 5 mins followed by acetic-acid treatment and measured for 20 mins; type: functional, organism-based
[20] = Toxicity in kunming mouse assessed as reduction in fecal dry weight at 1 to 10 mg/kg, iv after 1 hr; type: organism-based; details: in vivo
[21] = Neurotoxicity in kunming mouse models assessed as effect in locomotor activity at 10 mg/kg,iv measured up to 60 mins by rotarod test; type: toxicity, organism-based; details: in vivo, 1 h
[22] = tested on: Mus musculus; test: Antinociceptive activity in kunming mouse models of formalin-induced hyperalgesia assessed as reduction in time spent on paw biting inflammatory phase at 4 nmol, icv measured during phase 1 at 0 to 5 mins relative to control; type: functional; parameters: scale not given: the % may be the effect or the level left
[23] = tested on: Mus musculus; test: Antinociceptive activity in kunming mouse models assessed as effective dose after iv administration by warm water tail-flick assay; type: functional
[24] = tested on: Mus musculus; test: Antinociceptive activity in kunming mouse models of formalin-induced hyperalgesia assessed as reduction in time spent on paw shaking inflammatory phase at 0.04 nmol, icv measured during phase 1 at 0 to 5 mins relative to control; type: functional; parameters: scale not given: the % may be the effect or the level left
[25] = tested on: Mus musculus; test: Antinociceptive activity in icv administered kunming mouse models of formalin-induced hyperalgesia assessed reduction in time spent on paw biting during inflammatory phase 2 at 15 to 30 mins; type: functional; parameters: scale not given: the % may be the effect or the level left
[26] = tested on: Mus musculus; test: Antinociceptive activity in kunming mouse models assessed as maximum possible effect at 3 mg/kg, iv measured after 5 to 60 mins by warm water tail-flick assay; type: functional
[27] = Toxicity in kunming mouse assessed as reduction in number of fecal pellet at 1 to 10 mg/kg, iv after 1 hr; type: organism-based; details: in vivo
[28] = tested on: Mus musculus; test: Antinociceptive activity in kunming mouse models assessed as maximum possible effect at 0.4 nmol, icv measured from 5 to 60 mins by warm water tail-flick assay relative to control; type: functional
[29] = tested on: Mus musculus; test: Antinociceptive activity in kunming mouse models of formalin-induced hyperalgesia assessed as reduction in time spent on paw shaking inflammatory phase at 4 nmol, icv measured during phase 1 at 0 to 5 mins relative to control; type: functional; parameters: scale not given: the % may be the effect or the level left
[30] = tested on: Mus musculus; test: Antinociceptive activity in iv dosed kunming mouse models of formalin-induced hyperalgesia assessed as reduction in pain response of paw licking measured up to 60 mins; type: functional, organism-based

## C=C(C(N)=O)[C@@H](NC(=O)[C@H](Cc1ccccc1)NC(=O)[C@@H](CNC(C)=O)NC(=O)[C@@H](N)Cc1ccc(O)cc1)c1ccco1
[1]
  Emax: 78.2%
[2]
  Ki: 22.4 nM
[3]
  EC50: 1360 nM
[4]
  Ki: > 10 µM

## NC(=O)[C@H](Cc1ccccc1)NC(=O)[C@H](Cc1ccccc1)NC(=O)[C@@H]1CCCN1C(=O)[C@@H](N)Cc1ccc(O)cc1 [ENDOMORPHIN 2]
[1]
  Emax: 66.5%
[5]
  half-life: 12.7 min
[6]
  ED50: 0.96 nmol
[7]
  Activity: 100%
[8]
  half-life: 12.4 min

## C=C(C(N)=O)[C@@H](NC(=O)[C@H](Cc1c[nH]c2ccccc12)NC(=O)[C@@H](CNC(C)=O)NC(=O)[C@@H](N)Cc1ccc(O)cc1)c1ccco1
[1]
  Emax: 73.2%
[2]
  Ki: 4.54 nM
[3]
  EC50: 272 nM
[4]
  Ki: > 10 µM

## C=C(C(N)=O)[C@@H](NC(=O)[C@H](Cc1ccccc1)NC(=O)[C@@H](CCCNC(N)=O)NC(=O)[C@@H](N)Cc1ccc(O)cc1)c1ccco1
[9]
  Activity: 100%
[10]
  Activity: 100%
[11]
  Activity: 100%
[12]
  Activity: 100%
[13]
  Activity: 100%
[14]
  Activity: 100%
[15]
  Activity: inactive
[16]
  Activity: Dose-dependent effect
[17]
  Activity: 100%
[18]
  Activity: 100%
[1]
  Emax: 76.7%
[2]
  Ki: 8.72 nM
[19]
  Activity: Active
[20]
  Activity: Toxic
[21]
  Activity: Non-Toxic
[22]
  Activity: 100%
[23]
  ED50: 3.84 nmol
[24]
  Activity: 100%
[25]
  Activity: 100%
[3]
  EC50: 128 nM
[5]
  half-life: > 300 min
[4]
  Ki: > 10 µM
[26]
  MPE: 34.8%
[6]
  ED50: 0.043 nmol
[7]
  Activity: 100%
[27]
  Activity: Toxic
[28]
  MPE: 84%
[29]
  Activity: 100%
[8]
  half-life: > 300 min
[30]
  Activity: Dose-dependent effect

## C=C(C(N)=O)[C@@H](NC(=O)[C@H](Cc1c[nH]c2ccccc12)NC(=O)[C@@H](CCCCNC(C)=O)NC(=O)[C@@H](N)Cc1ccc(O)cc1)c1ccco1
[1]
  Emax: 37.5%
[2]
  Ki: 9.21 nM
[3]
  EC50: 934 nM
[4]
  Ki: 3.58 µM

## C=C(C(N)=O)[C@@H](NC(=O)[C@H](Cc1c[nH]c2ccccc12)NC(=O)[C@@H](CCC)NC(=O)[C@@H](N)Cc1ccc(O)cc1)c1ccco1
[1]
  Emax: 67.6%
[2]
  Ki: 34.4 nM
[3]
  EC50: 337 nM
[4]
  Ki: 2.66 µM

## C=C(C(N)=O)[C@@H](NC(=O)[C@H](Cc1c[nH]c2ccccc12)NC(=O)[C@@H](CCCCN)NC(=O)[C@@H](N)Cc1ccc(O)cc1)c1ccco1
[1]
  Emax: 65.8%
[2]
  Ki: 172 nM
[3]
  EC50: 1130 nM
[4]
  Ki: > 10 µM

## C=C(C(N)=O)[C@@H](NC(=O)[C@H](Cc1ccccc1)NC(=O)[C@@H](CCCNC(=N)N)NC(=O)[C@@H](N)Cc1ccc(O)cc1)c1ccco1
[1]
  Emax: 74.2%
[2]
  Ki: 19.2 nM
[3]
  EC50: 370 nM
[5]
  half-life: > 300 min
[4]
  Ki: 0.922 µM
[6]
  ED50: 0.054 nmol
[7]
  Activity: 100%
[28]
  MPE: 86.9%
[8]
  half-life: > 300 min

## NC(=O)[C@H](Cc1ccccc1)NC(=O)[C@H](Cc1c[nH]c2ccccc12)NC(=O)[C@@H]1CCCN1C(=O)[C@@H](N)Cc1ccc(O)cc1 [ENDOMORPHIN-1]
[7]
  Activity: 100%
[28]
  MPE: 42.1%
